Measurements from US10039729B2, “Use of kukoamine A and kukoamine B” (Tianjin Chase Sun Pharmaceutical Co., Ltd., priority 2010, dated 2018).
Like-named read-outs stand apart in the source and are kept apart here.

How the values were obtained:
CpG DNA = assay: Affinity biosensor binding with immobilized CpG DNA; conditions: for affinity / binding with CpG DNA: 4 μM solution; for affinity / binding with CpG DNA / affinity with CpG DNA: 5 μl loaded; for affinity with CpG DNA: 100 μM operating solution
Text: Immobilization of lipid A and CpG DNA: Using Optically-Based Affinity Biosensors technology, Lipid A, the biologic active centres of LPS, and CpG DNA were respectively, immobilized on the reacting surfaces of cuvettes in an IAsys plus affinity biosensor according to the manufacturer's instructions of IAsys Affinity Sensor. The end of hydrophobic side chain of lipid A was immobilized on cuvette with hydrophobic surface, and the phosphate group (active group of lipid A) at the other end was floating and exposing to the outside, which act as target spot of binding with active constituents for disease treatment in traditional Chinese medicine. The active constituents in solution were binded to lipid A through electrostatic interaction. Biotinylated CpG DNA was immobilized on the surface of a biotin cuvette by linking to avidin, which had been coated on the surface of a biotin cuvette, and then the unlabeled group of CpG DNA was floating and exposing to the outside, which act as target spot of binding with active constituents for disease treatment in traditional Chinese medicine. The active constituents in solution were binded to CpG DNA through the electrostatic interaction and embodiment.
Detection of the aqueous herbal extract: The crude drugs of 114 traditional Chinese herbs were pulverized. 1 g of each powder was added with 10 ml distilled water, boiled at 100° C. for 1.5 h, centrifuged at 4000 rpm for 20 min, filtrated and then collected the supernatant. 5 μl of aqueous herbal extracts of each herb were used to detect their binding with lipid A or CpG DNA. Here are the steps: Binding reaction: 45 μl PBS was added in cuvette; then 5 μl samples was added in cuvette; liquid were draw-out after binding response reach a plateau; Dissociation: Cuvette was washed thrice in 50 μl PBS; liquid were draw-out after dissociation reach a plateau; Regeneration: Cuvette was washed thrice in 50 μl 0.1N HCl; liquid were draw-out after regeneration reach a plateau; Cuvette was washed thrice in 50 μl PBS; next cycle was started to detect new sample after curves back to baseline levels and smoothed. Data analysis was performed using the FASTplot software after detection finished.
2.1.1 Methods: 500 g Lycii cortex was added with 5 L distilled water, soaked for 24 h, boiled at 100 for 1 h, filtered by coarse filter paper, and centrifuged at 8000 rpm/min for 30 min, and the supernatant was collected and concentrated to 1 L under reduced pressure. The supernatant was loaded onto AB-8 Macroporous adsorption resin, and eluted with distilled water and gradient ethanol (10%, 20%, 40% and 100%) successively. The eluted fractions were separately collected, and lyophilized after concentrated under reduced pressure. Five constituents were obtained, and named CL-1 to -5 according to their elution order. CL constituents were separately dissolved in PBS to make 1.0 mg/ml solution, 5 μl of which were loaded. Their binding activity with lipid A and CpG DNA were detected according to methods of embodiment 1.
2.2.1 Methods: CL-4 lyophilization powder was diluted into ultrapure water to make 100 mg/ml solution, filtered by a 0.45 μm filter membrane, loaded onto D001 cationic exchange gel column, and eluted with distilled water, 0.3 M Na2HPO4 and 0.5 M Na2HPO4 successively. The eluted fractions were separately collected, and lyophilized after concentrated under reduced pressure. Three constituents were obtained, and named CL-4a, -4b and -4c according to their elution order. CL-4 constituents were separately dissolved in PBS to make 1.0 mg/ml solution, 5 μl of which were loaded. Their binding activity with lipid A and CpG DNA were detected according to methods of embodiment 1.
3.1 Methods: KA and KB were separately dissolved to make 100 μM operating solution; 5 μl of the solution was loaded; their binding activity with lipid A and CpG DNA were detected according to methods of embodiment 1. […]

[1] = test system: mice challenged by heat-killed Escherichia coli; assay: LPS and TNF-α levels in blood of mice challenged by heat-killed E. coli; format: in vivo, Kunming mice; conditions: for LPS level in mice blood / TNF-α level in mice blood: 40 mg/kg 10 min after heat-killed E. coli 1.1×10^10 CFU/Kg, various time points, p<0.05 or p<0.01 vs control
Experimental: 8.1 Methods: Supernatant of heat-killed E. coli was prepared according to 2.3.3 items of embodiment 2; absorbance values of the supernatant were assayed at 600 nm (OD600 value 1.0≈1.0×10^10 CFU/ml); a total of 84 Kunming mice, half male and half female, were divided into three groups randomly: heat-killed E. coli control group, KA (40 mg/kg) plus heat-killed E. coli group and KB (40 mg/kg) plus heat-killed E. coli group; each group has 28 mice; after animals were weighed, heat-killed E. coli control group was injected with heat-killed E. coli(1.1×10^10 CFU/Kg); the other two groups were respectively injected with KA or KB (40 mg/kg) at 10 min after injection of heat-killed E. coli(1.1×10^10 CFU/Kg); the total injection of each animal was 200 μl per 20 g body weight; orbital venous blood of mice was collected at time point of 0, 2, 4, 8, 12, 24, 48 and 72 h after injection; LPS level was assayed by kinetic turbidimetric limulus test, and TNF-α was assayed by ELISA.
28.1 Methods: Kunming mice were randomly divided into two groups, and there were 56 mice in each group; heat-killed E. coli was diluted to make 1.0×10^9 CFU/ml suspension, and KB was dissolved to 6 mg/ml with sterile saline; caudal vein injection was adopted; medium group was injected with heat-killed Escherichia coli (0.2 ml per 20 g body weight) and sterile saline (0.2 ml per 20 g body weight); KB treatment groups were injected with heat-killed E. coli suspension S (0.2 ml per 20 g body weight) and KB (0.2 ml per 20 g body weight). Orbital venous blood of mice in medium group and KB treatment group was collected at time point of 0, 4, 8, 12, 24, 48 and 72 h after injection, the specific methods are: mice were killed by cervical dislocation, and immersed in 75% ethanol for skin degerming; the eye of mouse was removed, and blood was collected into a 1.5 ml EP tube; 10 μl blood were added into 190 μl nonpyrogenic water; solution was kept standing for 5-10 min for neutral sedimentation, and centrifuged at 1000 rpm for 10 min; the supernatant was transferred into a new centrifuge tube and stored at −20° C. for further detection; the rest was keep standing until aggregation and serum precipitation, then centrifuged at 3000 rpm for 10 min; the supernatant was transferred into a new centrifuge tube and stored at −20° C. for further detection;
(1) Detection of LPS levels in plasma: 10 μl plasma sample was dissolved in 190 μl sterile saline and mixed. Detection of LPS levels was performed according to the operating procedure of EDS-99 Bacterial Endotoxin Detecting system. Result was expressed by means of mean±standard deviation.
(2) Detection of serum cytokine levels: Because of the small blood volume of mouse, serum was diluted 2 times for detection. Detection of the TNF-α concentration was performed according to the manufacturer's instructions of ELISA kit. Result was expressed by means of mean±standard deviation.

[2] = Affinity biosensor binding with immobilized lipid A; conditions: 100 μM operating solution, 5 μl loaded
Text: Immobilization of lipid A and CpG DNA: Using Optically-Based Affinity Biosensors technology, Lipid A, the biologic active centres of LPS, and CpG DNA were respectively, immobilized on the reacting surfaces of cuvettes in an IAsys plus affinity biosensor according to the manufacturer's instructions of IAsys Affinity Sensor. The end of hydrophobic side chain of lipid A was immobilized on cuvette with hydrophobic surface, and the phosphate group (active group of lipid A) at the other end was floating and exposing to the outside, which act as target spot of binding with active constituents for disease treatment in traditional Chinese medicine. The active constituents in solution were binded to lipid A through electrostatic interaction. […]
2.1.1 Methods: 500 g Lycii cortex was added with 5 L distilled water, soaked for 24 h, boiled at 100 for 1 h, filtered by coarse filter paper, and centrifuged at 8000 rpm/min for 30 min, and the supernatant was collected and concentrated to 1 L under reduced pressure. […] Their binding activity with lipid A and CpG DNA were detected according to methods of embodiment 1. […]
3.1 Methods: KA and KB were separately dissolved to make 100 μM operating solution; 5 μl of the solution was loaded; their binding activity with lipid A and CpG DNA were detected according to methods of embodiment 1.

Q: With polymyxin B [PMB, reference compound] as the compound, how does the “affinity / binding with CpG DNA” value (CpG DNA) read?
A: almost has no binding effects

Q: Which “LPS level in mice blood” value [1] does the source give for NCCCN(CCCCNCCCNC(=O)CCc1ccc(O)c(O)c1)C(=O)CCc1ccc(O)c(O)c1 [KB, Kukoamine B] here?
A: significantly decreased

Q: And the “TNF-α level in mice blood” value [1]?
A: significantly decreased

Q: What about the “LPS levels in mice plasma vs heat-killed E. coli control group” value ([1]; sublethal heat-killed E. coli, KB 6 mg/ml, 0.2 ml per 20 g, 4, 8, 12, 24 and 48 h, p<0.05 or p<0.01) of the same compound?
A: significantly lower

Q: What about the “TNF-α levels in mice serum vs heat-killed E. coli control group” value ([1]; sublethal heat-killed E. coli, KB 6 mg/ml, 0.2 ml per 20 g, 4, 8, 12 and 24 h, p<0.01) of the same compound?
A: significantly lower

Q: What about the “affinity with lipid A” value [2] of the same compound?
A: high affinity

Q: What about the “affinity / binding with CpG DNA” value (CpG DNA) of the same compound?
A: high affinity

Q: What about the “affinity with CpG DNA” value (CpG DNA) of the same compound?
A: high affinity

Q: What about the Kd (CpG DNA; KB 0.25-4 μM, IAsys FASTfit, read-out: dissociation equilibrium constant (KD) with CpG DNA) of the same compound?
A: 660 nM

Q: What about the Kd (CpG DNA; with CpG DNA, read-out: dissociation equilibrium constant (KD = kass/kdiss)) of the same compound?
A: 664 nM

Q: What does the source list for O=C(CCc1ccc(O)c(O)c1)NCCCNCCCCNCCCNC(=O)CCc1ccc(O)c(O)c1 [KA, Kukoamine A]?
A: LPS level in mice blood [1]: significantly decreased; TNF-α level in mice blood [1]: significantly decreased; affinity with lipid A [2]: high affinity; affinity with CpG DNA (CpG DNA): high affinity
